Where two headings read alike, the source gives them in different places.
Legend:
HIV-1 strain LAI = test: Cellular anti-HIV assay, MT4 cells, MTT readout, wild type HIV-1 strain LAI; format: cell-based
Description: The compounds of the present invention were examined for anti-viral activity in a cellular assay. […] The cellular assay was performed according to the following procedure.

mutant B = test: Antiviral spectrum, fold resistance towards mutant B; format: cell-based; conditions: FR=IC50(mutant strain)/IC50(HIV-1 strain LAI)
Description: (§1) Because of the increasing emergence of drug resistant HIV strains, the present compounds were tested for their potency against clinically isolated HIV strains harboring several mutations. These mutations are associated with resistance to protease inhibitors and result in viruses that show various degrees of phenotypic cross-resistance to the currently commercially available drugs such as for instance saquinavir, ritonavir, nelfinavir, indinavir and amprenavir. The viral strains R13025, R13027, R13028, R13029, R13034, R13080, T13127 and R13363 contained mutations as indicated below in Table 3.

mutant C = test: Antiviral spectrum, fold resistance towards mutant C; format: cell-based; conditions: FR=IC50(mutant strain)/IC50(HIV-1 strain LAI)
Description: as §1

mutant D = test: Antiviral spectrum, fold resistance towards mutant D; format: cell-based; conditions: FR=IC50(mutant strain)/IC50(HIV-1 strain LAI)
Description: as §1

mutant A = format: cell-based; conditions: FR=IC50(mutant strain)/IC50(HIV-1 strain LAI)
mutant E = format: cell-based; conditions: FR=IC50(mutant strain)/IC50(HIV-1 strain LAI)
mutant F = test: Antiviral spectrum, fold resistance towards mutant F; format: cell-based; conditions: FR=IC50(mutant strain)/IC50(HIV-1 strain LAI)
Description: as §1

mutant G = test: Antiviral spectrum, fold resistance towards mutant G; format: cell-based; conditions: FR=IC50(mutant strain)/IC50(HIV-1 strain LAI)
Description: as §1

mutant H = test: Antiviral spectrum, fold resistance towards mutant H; format: cell-based; conditions: FR=IC50(mutant strain)/IC50(HIV-1 strain LAI)
in vitro = conditions: human
[1] = Human immunodeficiency virus 1, 120 h, Table 1, MT4 cells, five days, HIV-1 strain LAI, read-out: pIC50 (LAI) (converted)
[2] = Human immunodeficiency virus 1, MT4, Table 4, wild type HIV-LAI strain, read-out: WT (pIC50 against wild type HIV-LAI strain) (converted)

Row | SMILES | IC50 (HIV-1 strain LAI; [1]) | IC50 (HIV-1 strain LAI; [2]) | FR towards mutant B (mutant B) | FR towards mutant C (mutant C) | FR towards mutant D (mutant D) | FR value towards mutant A (mutant A) | FR towards mutant E (mutant E) | FR towards mutant F (mutant F) | FR towards mutant G (mutant G) | FR towards mutant H (mutant H) | CC50 at 5 days (in vitro)
1 | CC(C)CN(C[C@@H](O)[C@H](Cc1ccccc1)NC(=O)O[C@H]1CO[C@H]2OCC[C@H]21)S(=O)(=O)c1ccc2ncn(Cc3ccccc3)c2c1 [Compound 1, [(1S,2R)-2-hydroxy-3-[(2-methylpropyl)[[1-(phenylmethyl)benzimidazol-6-yl]sulfonyl]amino]-1-(phenylmethyl)-propyl]carbamic acid, [(3R,3aS,6aR)-hexahydrofuro[2,3-b]furan-3-yl]ester] | 0.794 nM | 0.794 nM | 3.1 | 1.1 | 1.5 | 9.3 | 1.6 | 40 | 275 | 33 | 63100 nM
2 | COC(=O)Nc1nc2ccc(S(=O)(=O)N(CC(C)C)C[C@@H](O)[C@H](Cc3ccccc3)NC(=O)COc3c(C)cccc3C)cc2[nH]1 [Compound 8, [(1S,2R)-2-hydroxy-3-[[[2-[(methoxycarbonyl)amino]-1H-benzimidazol-5-yl]sulfonyl](2-methylpropyl)amino]-1-(phenylmethyl)propyl]-(2,6-dimethylphenoxy)acetamide] | 3.16 nM | 3.16 nM | 2.0 | 1.4 | 1.9 | 2.1 | 2.3 | 16.2 | 89 |  | > 100000 nM

From patent US8143421B2, “Broadspectrum substituted benzimidazole sulfonamide HIV protease inhibitors” (priority 2002, dated 2012)
